This series can be described thus: PEBCA pharmacokinetics and biodistribution study in rats (Cbz and metabolites by LC-MS/MS). In kind it is in vivo, rat. To be noted: for detection of possible Cbz metabolite in samples: all tissue and serum samples after PEBCA, LC-MS/MS; for peak concentration ratio organ:blood, fold higher for Cbz than for IR780-oleyl: highest doses. On the procedure: Male Wistar rats were purchased at 8 weeks of age from Janvier Labs (France). They were housed in groups of four in individually ventilated cages in a specific pathogen-free environment at 22–23 °C and 50–60% relative humidity, on a 12-h light/dark cycle and with 70 air changes per hour and free access to food and sterile water. They were fed RM1 expanded pellets (Special Diets Services, Essex, UK), and the cages were enriched with housing, nesting material and gnaw sticks. All institutional and national guidelines for the care and use of laboratory animals were followed. Experiments were performed in Norway.
During all experiments, the animals were anaesthetized by inhalation of 2–3% isoflurane (Baxter, Deerfield, IL, USA). Anaesthesia was maintained with isoflurane in 0.4 L/min O2 and 0.6 L/min N2O.
To perform the pharmacokinetics and biodistribution study, the animals were separated into 2 groups according to dose: • Low dose PEBCA-Cbz, 0.5 mg/kg Cbz (4.4 mg/kg NPs) • High dose PEBCA-Cbz, 3.5 mg/kg Cbz (30.5 mg/kg NPs)
Details about the treatment groups are available in Table 1. Before injection, the particles were diluted in 0.9% saline to a concentration that corresponded to an injection volume of 2 mL/kg. In addition to the treated animals, 6 sham-treated (injected with 0.9% saline 2 mL/kg) animals were used. The sham-treated animals were euthanized at 2, 4 and 14 days, two at each time point. Animals were injected intravenously once.
Blood samples on time points 1–30 min and 4 h (Table 2) were performed on conscious animals, and all other blood samples were collected during exsanguination. The leg of the animal was shaved to expose the saphenous vein. Petrolatum was applied to the shaved area and the saphenous vein was punctured using a 19G needle. Into tubes containing blood clotting activator, 300–500 µL blood was collected (Microvette 500 Serum, Sarstedt AG & Co. KG, Germany). The tubes were turned 3–4 times, left for 60 min in upright position at room temperature to allow clot formation before centrifugation at 10 000 rcf for 5 min. The serum was immediately transferred to new tubes and stored at − 80 °C until LC–MS/MS analysis.
Cbz was quantified by LC–MS/MS, using the same instrumentation and chromatographic column as described for IR-780-oleyl quantification above. […] The flow rate was constant at 0.5 mL/min and the injection volume was 1 µL. […] Similarly, Cbz-d6 and docetaxel-d5 internal standards were monitored at m/z 864.4 → 583.2 and 835.5 → 554.3, respectively.
7-Methyl-docetaxel was purchased from SynZeal Research (Moraiya, India, catalogue number SZ-D031010), 10-methyl-docetaxel from Eos Med Chem (Jinan, China, custom synthesis), docetaxel from Sigma (Fluka, product number 01885) and 7-epi-docetaxel from Santa Cruz Biotechnology (Dallas, USA, product number SC-210610).
The Cbz-d6 and docetaxel-d5 internal standards were purchased from Toronto Research Chemicals (Toronto, Canada, catalogue numbers C046502 and D494423, respectively). A mix of the two internal standards was added to all standards and samples to yield a final concentration of 50 ng/mL.

`CC(=O)O[C@@]12CO[C@@H]1C[C@@H](O)[C@@]1(C)C(=O)[C@H](O)C3=C(C)[C@@H](OC(=O)[C@H](O)[C@@H](NC(=O)OC(C)(C)C)c4ccccc4)C[C@@](O)([C@@H](OC(=O)c4ccccc4)[C@H]21)C3(C)C` [7-epi-docetaxel]: the “detection of possible Cbz metabolite in samples” value (rat) was “no 7-epi-docetaxel”.
`CO[C@H]1C(=O)[C@@]2(C)[C@H]([C@H](OC(=O)c3ccccc3)[C@]3(O)C[C@H](OC(=O)[C@H](O)[C@@H](NC(=O)OC(C)(C)C)c4ccccc4)C(C)=C1C3(C)C)[C@]1(OC(C)=O)CO[C@@H]1C[C@@H]2O` [10-m-Doc, 10-methyl-docetaxel]: the “metabolite concentration in brain” value (Cbz metabolites after PEBCA, even at high dose administered, rat, negligible) is recorded as 0.2 ng/g. Besides, where the note is “after PEBCA, rat serum, found only up to the 15-min sampling point”, the “metabolite concentration in serum relative to Cbz in the same sample” value is given as at most 0.5%.
As to `CO[C@H]1C(=O)[C@]2(C)[C@@H](OC)C[C@H]3OC[C@@]3(OC(C)=O)[C@H]2[C@H](OC(=O)c2ccccc2)[C@]2(O)C[C@H](OC(=O)[C@H](O)[C@@H](NC(=O)OC(C)(C)C)c3ccccc3)C(C)=C1C2(C)C` [Cbz, cabazitaxel], under “Cbz after PEBCA, in most cases, rat”, the “sampling point at which the organ:blood ratio reaches its peak” value amounted to 24 h. For the same compound, the “dose response (concentration ratio normalized to injected dose)” value by setting is: (Cbz after PEBCA, majority of organs and time points, rat) above 1; (Cbz after PEBCA, serum, rat) below 1. The “Lung Cmax” value (Cbz measured after PEBCA high dose, 3.5 mg/kg Cbz (30.5 mg/kg NPs) i.v., rat, n = 4) is recorded as 7593 ng/g. The “measured concentration ratio all organs vs. blood, fold higher for cabazitaxel as compared to IR780-oleyl” value (all organs, rat (abstract)) is “more than 50 fold”. Further, the “peak concentration ratio organ:blood, fold higher for Cbz than for IR780-oleyl” value runs as follows: (all tissues except liver, rat) “at least 100 fold”; (liver, rat) “about 50 fold”. Moreover, for the setting “within the first 4 h after PEBCA injection, rat serum”, the “decrease in serum concentration of Cbz” value is listed as around 100 fold.
As for `CO[C@H]1C[C@H]2OC[C@@]2(OC(C)=O)[C@H]2[C@H](OC(=O)c3ccccc3)[C@]3(O)C[C@H](OC(=O)[C@H](O)[C@@H](NC(=O)OC(C)(C)C)c4ccccc4)C(C)=C([C@@H](O)C(=O)[C@]12C)C3(C)C` [7-methyl-docetaxel], the “detection of possible Cbz metabolite in samples” value (rat) is given as “No 7-methyl-docetaxel was observed in any sample”.
